According to ChEMBL document CHEMBL2150898, “Discovery of AM-1638: A Potent and Orally Bioavailable GPR40/FFA1 Full Agonist” (ACS Med Chem Lett, 2012):
The source made the active and inactive calls. No cut-off for these calls is given here.

Experiments:
[1] = molecular target: T1, Free fatty acid receptor 1 (Homo sapiens, UniProt O14842); experiment: Agonist activity at GPR40 expressed in CHO cells assessed as intrinsic efficacy after 20 seconds by aequorin bioluminescence assay in presence of 0.1 % human serum relative to AM-1638; type: functional, cell-based
[2] = molecular target: T1, Free fatty acid receptor 1; experiment: Agonist activity at GPR40 expressed in CHO cells after 20 seconds by aequorin bioluminescence assay in presence of 0.1 % human serum; type: functional, cell-based
[3] = molecular target: T1, Free fatty acid receptor 1; experiment: Agonist activity at GPR40 expressed in CHO cells after 20 seconds by aequorin bioluminescence assay in presence of 100 % human serum; type: functional, cell-based
[4] = system: Mus musculus; experiment: Antidiabetic activity in DIO BDF mouse model assessed as increase in plasma insulin level at 60 mg/kg, po administered 1 hr prior glucose-challenge challenge measured after 1 hr by ELISA; type: functional, organism-based; design: dose 60 mg/kg
[5] = system: Mus musculus; experiment: Antidiabetic activity in DIO BDF mouse model assessed as improvement in glucose-challenge AUC(0 to 60 mins) at 60 mg/kg, po administered 1 hr prior glucose-challenge challenge measured after 1 hr by OGTT; type: functional
[6] = system: Mus musculus; experiment: Antidiabetic activity in DIO BDF mouse model assessed as reduction in blood glucose-challenge excursion at 60 mg/kg, po administered 1 hr prior glucose-challenge challenge measured after 1 hr by OGTT ( Rvb = 462 mg/dl ); type: functional
[7] = Clearance in cynomolgus monkey at 2 mg/kg, po and 0.5 mg/kg, iv; type: ADME, organism-based, Macaca fascicularis; conditions: in vivo
[8] = Tmax in cynomolgus monkey at 2 mg/kg, po and 0.5 mg/kg, iv; type: ADME, organism-based, Macaca fascicularis; conditions: in vivo
[9] = Clearance in mouse at 5 mg/kg, po and 1 mg/kg, iv; type: ADME, organism-based; conditions: in vivo
[10] = system: Mus musculus; experiment: Antidiabetic activity in DIO BDF mouse model assessed as increase in insulin AUC at 60 mg/kg, po administered 1 hr prior glucose-challenge challenge measured after 1 hr by ELISA; type: functional, organism-based; design: dose 60 mg/kg
[11] = Tmax in rat at 2 mg/kg, po and 0.5 mg/kg, iv; type: ADME, organism-based; conditions: in vivo
[12] = Cmax in cynomolgus monkey at 2 mg/kg, po; type: ADME, organism-based, Macaca fascicularis; design: dose 2 mg/kg, route oral; conditions: in vivo
[13] = Half life in rat at 0.5 mg/kg, iv; type: ADME, organism-based; design: dose 0.5 mg/kg, route intravenous; conditions: in vivo
[14] = Half life in mouse at 1 mg/kg, iv; type: ADME, organism-based; design: dose 1 mg/kg, route intravenous; conditions: in vivo
[15] = Oral bioavailability in mouse at 5 mg/kg; type: ADME, organism-based; conditions: in vivo
[16] = Half life in cynomolgus monkey at 0.5 mg/kg, iv; type: ADME, organism-based, Macaca fascicularis; design: dose 0.5 mg/kg, route intravenous; conditions: in vivo
[17] = Cmax in mouse at 5 mg/kg, po; type: ADME, organism-based; design: dose 5 mg/kg, route oral; conditions: in vivo
[18] = Clearance in rat at 2 mg/kg, po and 0.5 mg/kg, iv; type: ADME, organism-based; conditions: in vivo
[19] = Tmax in mouse at 5 mg/kg, po and 1 mg/kg, iv; type: ADME, organism-based; conditions: in vivo
[20] = Oral bioavailability in cynomolgus monkey at 2 mg/kg; type: ADME, organism-based, Macaca fascicularis; conditions: in vivo
[21] = Cmax in rat at 2 mg/kg, po; type: ADME, organism-based; design: dose 2 mg/kg, route oral; conditions: in vivo
[22] = Oral bioavailability in rat at 2 mg/kg; type: ADME, organism-based; conditions: in vivo

T1 sequence (O14842 whole entry): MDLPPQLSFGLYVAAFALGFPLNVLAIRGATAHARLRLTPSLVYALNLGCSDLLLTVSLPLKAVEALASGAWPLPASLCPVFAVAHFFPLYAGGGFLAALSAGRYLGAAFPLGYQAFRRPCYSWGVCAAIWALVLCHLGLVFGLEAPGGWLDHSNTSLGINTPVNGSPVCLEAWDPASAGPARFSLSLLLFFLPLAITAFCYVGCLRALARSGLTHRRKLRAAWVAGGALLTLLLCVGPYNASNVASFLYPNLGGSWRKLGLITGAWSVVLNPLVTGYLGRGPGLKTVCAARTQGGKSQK

SMILES	Efficacy [1] [%]	EC50 [2] [µM]	further results
COc1ccc(F)c(-c2ccc(COc3cccc([C@H](C)CC(=O)O)c3)cc2C(C)(C)C)c1	107	0.77	–
COc1ccc(F)c(-c2ccc(COc3cccc([C@@H](CC(=O)O)c4ccccc4)c3)cc2C(C)(C)C)c1	80	1.2	–
COc1ccc(F)c(-c2ccc(COc3ccc(CCC(=O)O)cc3)cc2)c1	96	1.9	–
COc1ccc(F)c(-c2ccc(COc3cccc([C@H](CC(=O)O)C4CC4)c3)cc2C2=CCCC2(C)C)c1	76	1.1	EC50 [3]: 34 µM
CC/C=C\C/C=C\C/C=C\C/C=C\C/C=C\C/C=C\CCC(=O)O [DOCONEXENT]	67	36	–
COc1ccc(F)c(-c2ccc(COc3cccc([C@@H](CC(=O)O)C4CC4)c3)cc2C(C)(C)C)c1	103	0.37	EC50 [3]: 1.9 µM
CC#CC(CC(=O)O)c1ccc(OCc2ccc(-c3cccc(OC)c3)cc2)cc1 (racemic)	98	2.3	–
COc1ccc(F)c(-c2ccc(COc3cccc([C@@H](CC(=O)O)C4CC4)c3)cc2)c1	107	0.48	EC50 [3]: 38 µM
COc1ccc(F)c(-c2ccc(COc3cccc([C@@H](CC(=O)O)C4CCCCC4)c3)cc2C(C)(C)C)c1	41	2.1	–
COc1ccc(F)c(-c2ccc(COc3cccc([C@@H](CC(=O)O)C(C)C)c3)cc2C(C)(C)C)c1	86	2.2	–
CC#C[C@H](CC(=O)O)c1ccc(OCc2ccc(-c3cccc(OC)c3)cc2)cc1	99	4	–
CC#C[C@@H](CC(=O)O)c1ccc(OCc2ccc(-c3cccc(OC)c3)cc2)cc1	47	0.65	–
COc1ccc(F)c(-c2ccc(COc3cccc([C@@H](CC(=O)O)C(F)(F)F)c3)cc2C(C)(C)C)c1	111	2.1	–
COc1ccc(F)c(-c2ccc(COc3cccc([C@@H](CC(=O)O)C4CCCC4)c3)cc2C(C)(C)C)c1	59	1.31	–
CC#C[C@H](CC(=O)O)c1ccc(OCc2ccc(-c3cc(OC)ccc3F)cc2)cc1	97	2.3	–
CC#C[C@@H](CC(=O)O)c1ccc(OCc2cccc(-c3ccc(C(F)(F)F)cc3)c2)cc1	–	–	Activity [4]: inactive; Activity [5]: 34%; Activity [6]: 317 mg/dL
CC[C@H](CC(=O)O)c1cccc(OCc2ccc(-c3cc(OC)ccc3F)c(C(C)(C)C)c2)c1	110	0.68	–
COc1ccc(F)c(-c2ccc(COc3cccc(CCC(=O)O)c3)cc2)c1	104	1.2	–
CCC[C@H](CC(=O)O)c1cccc(OCc2ccc(-c3cc(OC)ccc3F)c(C(C)(C)C)c2)c1	94	0.69	–
CC#CC(CC(=O)O)c1ccc(OCc2ccc(-c3ccccc3)cc2)cc1 (racemic)	105	7.7	–
COc1ccc(F)c(-c2ccc(COc3cccc([C@@H](CC(=O)O)C4CCC4)c3)cc2C(C)(C)C)c1	106	0.42	–
COc1ccc(F)c(-c2ccc(COc3cccc([C@@H](CC(=O)O)C4CC4)c3)cc2C2=CCCC2(C)C)c1	–	–	clearance [7]: 13.5 mL/min/kg; Activity [4]: Active; Tmax [8]: 2 h; clearance [9]: 3 mL/min/kg; Activity [10]: Active; Tmax [11]: 3.5 h; Cmax [12]: 5.1 µM; half-life [13]: 1.8 h; Activity [5]: 46%; half-life [14]: 2 h; bioavailability [15]: > 100%; half-life [16]: 2.1 h; Activity [6]: 204 mg/dL; Cmax [17]: 14 µM; clearance [18]: 15.2 mL/min/kg; Tmax [19]: 1 h; bioavailability [20]: 71%; Cmax [21]: 3.6 µM; bioavailability [22]: 72%; EC50 [3]: 0.71 µM
COc1ccc(F)c(-c2ccc(COc3cccc(CCC(=O)O)c3)cc2C(C)(C)C)c1	100	0.9	–
